Measurements published in patent US11498896B2 (The Broad Institute, Inc., priority 2014, dated 2022).

How the values were obtained:
[1] = biological target: D2 receptor (Homo sapiens (Human), UniProt P14416); assay: D2 radioligand binding assay
[2] = biological target: T1, human D2R/β-arrestin (Homo sapiens (Human), UniProt P14416); assay: β-arrestin agonist assay (PathHunter); assay type: cell-based; settings: CHO-K1 cells expressing human D2R/β-arrestin; agonist mode
Method: The detection reagent (9.6 μL, Buffer:Emerald II:Galactor-Star in a 19:5:1 ratio, i.e., 14.06 mL:3.7 mL:0.74 mL=18.5 mL) was then added to the agonist plates.

[3] = biological target: T1, human D2R/β-arrestin; assay: Gi/cAMP agonist assay (Lance Ultra cAMP, forskolin); assay type: cell-based; settings: CHO-K1 cells expressing human D2R/β-arrestin; agonist mode, 2.5 μM forskolin
Method: Eu-cAMP tracer solution (10 μl, PerkinElmer, 360 μl of Tracer in 17.64 ml kit buffer) and ULight-anti-cAMP solution (10 μl, 120 μL antibody in 17.88 ml kit buffer) was then added to each well.

[4] = biological target: T1, human D2R/β-arrestin; assay: cell-based; settings: β-arrestin Antagonist, CHO-K1 cells expressing human D2R/β-arrestin; antagonist mode, quinpirole 130 nM
[5] = biological target: T1, human D2R/β-arrestin; assay: cell-based; settings: cAMP Antagonist, CHO-K1 cells expressing human D2R/β-arrestin; antagonist mode, 2.5 μM forskolin and 2.7 nM quinpirole

T1 sequence (P14416 whole entry): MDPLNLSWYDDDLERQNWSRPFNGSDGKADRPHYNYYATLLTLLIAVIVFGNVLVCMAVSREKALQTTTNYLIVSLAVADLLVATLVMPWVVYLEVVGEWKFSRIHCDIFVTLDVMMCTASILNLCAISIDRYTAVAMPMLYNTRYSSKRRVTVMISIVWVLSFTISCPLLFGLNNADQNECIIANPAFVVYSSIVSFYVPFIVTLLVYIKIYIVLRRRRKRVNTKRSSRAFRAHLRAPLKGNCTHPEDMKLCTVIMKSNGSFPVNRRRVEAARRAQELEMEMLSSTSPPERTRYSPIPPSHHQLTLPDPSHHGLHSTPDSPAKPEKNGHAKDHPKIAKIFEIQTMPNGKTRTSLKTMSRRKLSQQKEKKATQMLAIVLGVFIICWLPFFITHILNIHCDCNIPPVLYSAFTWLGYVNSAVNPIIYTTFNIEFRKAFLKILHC
Sequence of D2 receptor (P14416 whole entry): as above

| SMILES | Ki [1] [nM] | EC50 [2] [nM] | EC50 [3] [nM] | IC50 [4] [nM] | IC50 [5] [nM] |
| --- | --- | --- | --- | --- | --- |
| CNC(=O)C1(C)CCN(CC2COc3ccccc3O2)CC1 (single isomer, unassigned) [Compound 202b, 1-((2,3-dihydrobenzo[b][1,4]dioxin-2-yl)methyl)-N,4-dimethylpiperidine-4-carboxamide] | 1000 to 10000 | > 30000 | 100 to 1000 | 100 to 1000 | 100 to 1000 |
| CC1(Oc2ccc(Cl)cc2)CCN(CCOc2ccccc2)C1 (stereo not drawn) [Compound 1, 3-(4-chlorophenoxy)-3-methyl-1-(2-phenoxyethyl)pyrrolidine] | 1000 to 10000 | > 30000 | < 100 | 1000 to 10000 | > 30000 |
| CC1(Oc2ccc(Cl)cc2)CCN(CCn2ccccc2=O)C1 (stereo not drawn) [Compound 7, 1-(2-(3-(4-chlorophenoxy)-3-methylpyrrolidin-1-yl)ethyl)pyridin-2(1H)-one] | 10000 to 30000 | > 30000 | > 30000 | > 30000 | > 30000 |
| CC1(Oc2ccc(Cl)cc2)CCN(CCCCOc2ccccc2F)C1 (stereo not drawn) [Compound 27, 3-(4-chlorophenoxy)-1-(4-(2-fluorophenoxy)butyl)-3-methylpyrrolidine] | 100 to 1000 | > 30000 | > 30000 | 1000 to 10000 | 100 to 1000 |
| CC1(Oc2ccc(Cl)cc2)CCN(CCOc2cc(F)ccc2C(F)(F)F)CC1 [Compound 122, 4-(4-Chlorophenoxy)-1-(2-(5-fluoro-2-(trifluoromethyl)phenoxy)ethyl)-4-methylpiperidine] | 100 to 1000 | > 30000 | < 100 | 100 to 1000 | > 30000 |
| COC1(C)CCN(CCOc2ccccc2C(F)(F)F)CC1 [Compound 123, 4-methoxy-4-methyl-1-(2-(2-(trifluoromethyl)phenoxy)ethyl) piperidine] | < 100 | > 30000 | > 30000 | 100 to 1000 | 100 to 1000 |
| FC(F)(F)c1ccccc1OCCN1CCC2(CCCN2c2ccc(Cl)cc2)CC1 [Compound 135, 1-(4-Chlorophenyl)-8-(2-(2-(trifluoromethyl)phenoxy)ethyl)-1,8-diazaspiro[4.5]decane] | < 100 | > 30000 | > 30000 | < 100 | < 100 |
| Fc1ccccc1OCCN1CCC2(CC1)CCN2c1ccc(Cl)cc1 [Compound 137, 1-(4-chlorophenyl)-7-(2-(2-fluorophenoxy)ethyl)-1,7-diazaspiro[3.5]nonane] | < 100 | > 30000 | > 30000 | < 100 | < 100 |
| CC1(Oc2ccc(Cl)cc2)CCN(CCOc2ccccc2Cl)CC1 [Example 88, 4-(4-chlorophenoxy)-1-(2-(2-chlorophenoxy)ethyl)-4-methylpiperidine] | – | < 100 | < 100 | < 100 | > 30000 |
| CC1(Oc2ccccc2)CCN(CCOc2ccccc2Cl)CC1 [Example 89, 1-(2-(2-Chlorophenoxy)ethyl)-4-methyl-4-phenoxypiperidine] | – | < 100 | < 100 | < 100 | > 30000 |
| CC1(Oc2ccc(Cl)cc2)CCN(CCOc2ccc3ncoc3c2)C1 (stereo not drawn) [Example 92, 6-(2-(3-(4-Chlorophenoxy)-3-methylpyrrolidin-1-yl)ethoxy)benzo[d]oxazole] | – | > 30000 | < 100 | 1000 to 10000 | 100 to 1000 |
| OC1(c2ccccc2)CCN(CCOc2ccccc2)C1 (stereo not drawn) [Example 93, 1-(2-Phenoxyethyl)-3-phenylpyrrolidin-3-ol] | – | > 30000 | 100 to 1000 | 1000 to 10000 | 100 to 1000 |
| O=[N+]([O-])c1ccc(OC2(c3ccccc3)CCN(CCOc3ccccc3)C2)cc1 (stereo not drawn) [Example 94, 3-(4-nitrophenoxy)-1-(2-phenoxyethyl)-3-phenylpyrrolidine] | – | > 30000 | 100 to 1000 | 1000 to 10000 | 1000 to 10000 |

Results, then the compound that gave them:

| Ki [1] [nM] | EC50 [2] [nM] | EC50 [3] [nM] | IC50 [4] [nM] | IC50 [5] [nM] | SMILES |
| --- | --- | --- | --- | --- | --- |
| – | > 30000 | > 30000 | 100 to 1000 | < 100 | CC1(Oc2ccc(Cl)cc2)CCCN(CCOc2ccccc2Cl)C1 (stereo not drawn) [Example 97, 3-(4-chlorophenoxy)-1-(2-(2-chlorophenoxy)ethyl)-3-methylpiperidine] |
| – | > 30000 | > 30000 | 100 to 1000 | < 100 | CC1(Oc2ccc(Cl)cc2)CCCN(CCOc2ccccc2F)C1 (stereo not drawn) [Example 98, 3-(4-Chlorophenoxy)-1-(2-(2-fluorophenoxy)ethyl)-3-methylpiperidine] |
| – | > 30000 | > 30000 | 1000 to 10000 | 100 to 1000 | CC1(Oc2cccc(C(F)(F)F)c2)CCCN(CCOc2ccccc2)C1 (stereo not drawn) [Example 100, 3-methyl-1-(2-phenoxyethyl)-3-(3-(trifluoromethyl)phenoxy)piperidine] |
| – | > 30000 | > 30000 | 1000 to 10000 | 1000 to 10000 | FC(F)(F)c1ccccc1OCCN1CCC(=Cc2ccccc2)CC1 [Example 101, 4-benzylidene-1-(2-(2-(trifluoromethyl)phenoxy)ethyl)piperidine] |
| – | > 30000 | 100 to 1000 | 1000 to 10000 | 1000 to 10000 | FC(F)(F)c1ccccc1OCCN1CCC2(CC1)CC2c1ccccc1 (stereo not drawn) [Example 102, 1-Phenyl-6-(2-(2-(trifluoromethyl)phenoxy)ethyl)-6-azaspiro[2.5]octane] |
| – | > 30000 | > 30000 | 100 to 1000 | 100 to 1000 | OC(c1ccccc1)C1(O)CCN(CCOc2ccccc2C(F)(F)F)CC1 (stereo not drawn) [Example 103, 4-(Hydroxy(phenyl)methyl)-1-(2-(2-(trifluoromethyl)phenoxy)ethyl) piperidin-4-ol] |
| – | > 30000 | 10000 to 30000 | 100 to 1000 | 1000 to 10000 | CC1(Oc2ccccc2Cl)CCN(CCOc2ccccc2C(F)(F)F)CC1 [Example 104, 4-(2-Chlorophenoxy)-4-methyl-1-(2-(2-(trifluoromethyl)phenoxy)ethyl) piperidine] |
| – | > 30000 | < 100 | 100 to 1000 | < 100 | CC1(Oc2ccccn2)CCN(CCOc2ccccc2C(F)(F)F)CC1 [Example 105, 2-((4-methyl-1-(2-(2-(trifluoromethyl)phenoxy)ethyl)piperidin-4-yl)oxy) pyridine] |
| – | 10000 to 30000 | < 100 | 100 to 1000 | 100 to 1000 | CC1(C(O)c2ccccc2)CCN(CCOc2ccccc2C(F)(F)F)CC1 (stereo not drawn) [Example 107, (4-methyl-1-(2-(2-(trifluoromethyl)phenoxy)ethyl)piperidin-4-yl)(phenyl)methanol] |
| – | > 30000 | > 30000 | 10000 to 30000 | 1000 to 10000 | CC1(Oc2ccc(Cl)cc2)CCCN(C(C)(C)COc2ccccc2)C1 (stereo not drawn) [Example 108, 3-(4-Chlorophenoxy)-3-methyl-1-(2-methyl-1-phenoxypropan-2-yl)piperidine] |
| – | < 100 | < 100 | < 100 | > 30000 | CC1(Oc2ccccc2)CCN(CCOc2ccccc2C#N)CC1 [Example 109, 2-(2-(4-methyl-4-phenoxypiperidin-1-yl)ethoxy)benzonitrile] |
| – | > 30000 | > 30000 | 1000 to 10000 | 100 to 1000 | CN(C)c1ccccc1OCCN1CCC(C)(Oc2ccccc2)CC1 [Example 111, N,N-dimethyl-2-(2-(4-methyl-4-phenoxypiperidin-1-yl)ethoxy)aniline] |
